Reference: PubChem BioAssay AID1918939 (Molecular Pharmacology Branch, DTP, NCI, 2023)

System: 653999-131-R-J2-PDC complex spheroid viability
Assay: Anticancer human tumor 653999-131-R-J2-PDC patient-derived lung adenocarcinoma cell line growth inhibition
Settings: for IC50: curve of first compound; for viability, T/C: stronger effect = lower value
Method in brief: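 Drug combinations with the LSD1 inhibitor iadademstat tested on tumor cells co-cultured as spheroids with endothelial cells and mesenchymal stem cells. Concentrations descended in half-log increments from clinical Cmax or 10 microM.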

[1] = second compound 0.1 µM, first compound 0.00316 µM
[2] = second compound 0.1 µM, first compound 0.01 µM
[3] = second compound 0.1 µM, first compound 0.0316 µM
[4] = second compound 0.1 µM, first compound 0.1 µM
[5] = second compound 0.316 µM, first compound 0.00316 µM
[6] = second compound 0.316 µM, first compound 0.01 µM
[7] = second compound 0.316 µM, first compound 0.0316 µM
[8] = second compound 0.316 µM, first compound 0.1 µM
[9] = second compound 1 µM, first compound 0.00316 µM
[10] = second compound 1 µM, first compound 0.01 µM
[11] = second compound 1 µM, first compound 0.0316 µM
[12] = second compound 1 µM, first compound 0.1 µM
[13] = second compound 3.16 µM, first compound 0.00316 µM
[14] = second compound 3.16 µM, first compound 0.01 µM
[15] = second compound 3.16 µM, first compound 0.0316 µM
[16] = second compound 3.16 µM, first compound 0.1 µM
[17] = second compound 10 µM, first compound 0.00316 µM
[18] = second compound 10 µM, first compound 0.01 µM
[19] = second compound 10 µM, first compound 0.0316 µM
[20] = second compound 10 µM, first compound 0.1 µM
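Further: spheroids exposed to agents for seven days before readout.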

In the case of `CC(C)CC(NC(=O)CNC(=O)c1cc(Cl)ccc1Cl)B1OC(=O)CC(CC(=O)O)(C(=O)O)O1` (stereo not given) + NC1CC1c1ccc(-c2cccc(O)c2)cc1, the IC50 (second compound 0.1 µM) is reported as 21.1 nM, the IC50 (second compound 0.316 µM) is reported as 15.1 nM and the IC50 (second compound 1 µM) is reported as 16.5 nM. It also gave an IC50 (second compound 3.16 µM) of 14.7 nM, an IC50 (second compound 10 µM) of 9.33 nM and a viability, T/C (second compound 0.1 µM, first compound 0.000316 µM) of 88.6%. It also gave a viability, T/C (second compound 0.1 µM, first compound 0.001 µM) of 103%, a viability, T/C [1] of 109% and a viability, T/C [2] of 73%. For the same compound, the viability, T/C [3] was 38.5%, the viability, T/C [4] was 19.6% and the viability, T/C (second compound 0.316 µM, first compound 0.000316 µM) was 97.4%. For the same compound, the viability, T/C (second compound 0.316 µM, first compound 0.001 µM) was 91.7%, the viability, T/C [5] was 117% and the viability, T/C [6] was 62.3%. It also gave a viability, T/C [7] of 38.2%, a viability, T/C [8] of 17.5% and a viability, T/C (second compound 1 µM, first compound 0.000316 µM) of 77.9%. For the same compound, the viability, T/C (second compound 1 µM, first compound 0.001 µM) was 87%, the viability, T/C [9] was 123% and the viability, T/C [10] was 68.2%. For the same compound, the viability, T/C [11] was 33%, the viability, T/C [12] was 20.4% and the viability, T/C (second compound 3.16 µM, first compound 0.000316 µM) was 92.8%. It also gave a viability, T/C (second compound 3.16 µM, first compound 0.001 µM) of 90.8%, a viability, T/C [13] of 116% and a viability, T/C [14] of 61.7%. It also gave a viability, T/C [15] of 38.7%, a viability, T/C [16] of 14.7% and a viability, T/C (second compound 10 µM, first compound 0.000316 µM) of 80%. The viability, T/C (second compound 10 µM, first compound 0.001 µM) was 84.6%, the viability, T/C [17] was 113% and the viability, T/C [18] was 47.3%. For the same compound, the viability, T/C [19] was 23.9% and the viability, T/C [20] was 9.99%.
With `NS(=O)(=O)OCC1CC(n2ccc3c(NC4CCc5ccccc54)ncnc32)CC1O` (stereo not given) + NC1CC1c1ccc(-c2cccc(O)c2)cc1 the IC50 (second compound 0.1 µM) was > 3000 nM, the IC50 (second compound 0.316 µM) was > 3000 nM and the IC50 (second compound 1 µM) was > 3000 nM. For the same compound, the IC50 (second compound 3.16 µM) was > 3000 nM, the IC50 (second compound 10 µM) was > 3000 nM and the viability, T/C (second compound 0.1 µM, first compound 0.00949 µM) was 94.2%. It also gave a viability, T/C (second compound 0.1 µM, first compound 0.03 µM) of 97.9%, a viability, T/C (second compound 0.1 µM, first compound 0.0949 µM) of 107% and a viability, T/C (second compound 0.1 µM, first compound 0.3 µM) of 74.1%. The viability, T/C (second compound 0.1 µM, first compound 0.949 µM) was 64.9%, the viability, T/C (second compound 0.1 µM, first compound 3 µM) was 60% and the viability, T/C (second compound 0.316 µM, first compound 0.00949 µM) was 91.8%. It also gave a viability, T/C (second compound 0.316 µM, first compound 0.03 µM) of 95.7%, a viability, T/C (second compound 0.316 µM, first compound 0.0949 µM) of 118% and a viability, T/C (second compound 0.316 µM, first compound 0.3 µM) of 81.4%. It also gave a viability, T/C (second compound 0.316 µM, first compound 0.949 µM) of 66%, a viability, T/C (second compound 0.316 µM, first compound 3 µM) of 61.6% and a viability, T/C (second compound 1 µM, first compound 0.00949 µM) of 94.4%. It also gave a viability, T/C (second compound 1 µM, first compound 0.03 µM) of 96.4%, a viability, T/C (second compound 1 µM, first compound 0.0949 µM) of 113% and a viability, T/C (second compound 1 µM, first compound 0.3 µM) of 72.7%. It also gave a viability, T/C (second compound 1 µM, first compound 0.949 µM) of 64.5%, a viability, T/C (second compound 1 µM, first compound 3 µM) of 60.7% and a viability, T/C (second compound 3.16 µM, first compound 0.00949 µM) of 83.2%. For the same compound, the viability, T/C (second compound 3.16 µM, first compound 0.03 µM) was 102%, the viability, T/C (second compound 3.16 µM, first compound 0.0949 µM) was 132% and the viability, T/C (second compound 3.16 µM, first compound 0.3 µM) was 64.9%. It also gave a viability, T/C (second compound 3.16 µM, first compound 0.949 µM) of 64.7%, a viability, T/C (second compound 3.16 µM, first compound 3 µM) of 61.1% and a viability, T/C (second compound 10 µM, first compound 0.00949 µM) of 94.1%. The viability, T/C (second compound 10 µM, first compound 0.03 µM) was 105%, the viability, T/C (second compound 10 µM, first compound 0.0949 µM) was 132% and the viability, T/C (second compound 10 µM, first compound 0.3 µM) was 68.8%. The viability, T/C (second compound 10 µM, first compound 0.949 µM) was 61.8% and the viability, T/C (second compound 10 µM, first compound 3 µM) was 48.2%.
`COc1cc(Nc2ncc3c(n2)-c2ccc(Cl)cc2C(c2c(F)cccc2OC)=NC3)ccc1C(=O)O` + NC1CC1c1ccc(-c2cccc(O)c2)cc1 was tested, and the IC50 (second compound 0.1 µM) was > 1000 nM, the IC50 (second compound 0.316 µM) was > 1000 nM and the IC50 (second compound 1 µM) was > 1000 nM. For the same compound, the IC50 (second compound 3.16 µM) was 819 nM, the IC50 (second compound 10 µM) was > 1000 nM and the viability, T/C [1] was 66.8%. The viability, T/C [2] was 75.8%, the viability, T/C [3] was 73.6% and the viability, T/C [4] was 62.1%. For the same compound, the viability, T/C (second compound 0.1 µM, first compound 0.316 µM) was 66.8%, the viability, T/C (second compound 0.1 µM, first compound 1 µM) was 64.8% and the viability, T/C [5] was 63.6%. For the same compound, the viability, T/C [6] was 70.6%, the viability, T/C [7] was 65.8% and the viability, T/C [8] was 57.2%. For the same compound, the viability, T/C (second compound 0.316 µM, first compound 0.316 µM) was 57.3%, the viability, T/C (second compound 0.316 µM, first compound 1 µM) was 53.9% and the viability, T/C [9] was 63.5%. It also gave a viability, T/C [10] of 70.8%, a viability, T/C [11] of 61.8% and a viability, T/C [12] of 59.8%. For the same compound, the viability, T/C (second compound 1 µM, first compound 0.316 µM) was 57.3%, the viability, T/C (second compound 1 µM, first compound 1 µM) was 53.7% and the viability, T/C [13] was 62.1%. For the same compound, the viability, T/C [14] was 58.9%, the viability, T/C [15] was 58% and the viability, T/C [16] was 54.7%. For the same compound, the viability, T/C (second compound 3.16 µM, first compound 0.316 µM) was 51.7%, the viability, T/C (second compound 3.16 µM, first compound 1 µM) was 49.6% and the viability, T/C [17] was 60.2%. The viability, T/C [18] was 66.3%, the viability, T/C [19] was 65.1% and the viability, T/C [20] was 55.5%. The viability, T/C (second compound 10 µM, first compound 0.316 µM) was 56.8% and the viability, T/C (second compound 10 µM, first compound 1 µM) was 53.5%.
